According to patent US20230278972A1, “SUBSTITUTED HALOALKYL SULFONANILIDE HERBICIDES” (FMC Corporation, priority 2020, published 2023):

Experiments:
Format in all cases: in vivo
[1] = test system: blackgrass (Alopecurus myosuroides); test: Test A1 preemergence, blackgrass
Procedure, shortened: (§1)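 Seeds were first planted into a blend of loam soil and sand and given a preemergence directed soil spray. In parallel, pots of the same soil were sown for postemergence application once plants reached 2 to 10 cm and the one- to two-leaf stage. Both used surfactant-containing non-phytotoxic solvent formulations.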

[2] = test system: goosegrass (Eleusine indica); test: Test A1 preemergence, goosegrass
Procedure, shortened: as §1

[3] = test system: wheat (Triticum aestivum); test: Test A1 preemergence, wheat
Procedure, shortened: as §1

[4] = test system: blackgrass (Alopecurus myosuroides); test: Test A1 postemergence, blackgrass; details: Postemergence, 0 to 100 scale (0 no effect, 100 complete control)
Procedure, shortened: (§2)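 Plants grown in pots of loam/sand mix; preemergence = soil-directed spray on seeded pots, postemergence = spray at 1–2 leaves, height 2–10 cm; test chemicals formulated in non-phytotoxic solvent with surfactant.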

[5] = test system: Foxtail, Giant (giant foxtail, Setaria faberi); test: Test A1 postemergence, Foxtail, Giant; details: Postemergence
Procedure, shortened: as §2

[6] = test system: goosegrass (Eleusine indica); test: Test A1 postemergence, goosegrass; details: Postemergence
Procedure, shortened: as §2

[7] = test system: Pigweed, Palmer (palmer amaranth, palmer pigweed, Amaranthus palmeri); test: Test A1 postemergence, Pigweed, Palmer; details: Postemergence
Procedure, shortened: as §2

[8] = test system: Ryegrass, Italian (Italian ryegrass, Lolium multiflorum); test: Test A1 postemergence, Ryegrass, Italian; details: Postemergence
Procedure, shortened: as §2

[9] = test system: horseweed (Erigeron canadensis); test: Test A1 postemergence, horseweed; details: Postemergence
Procedure, shortened: as §2

rice (Oryza sativa) = test: Test B1 flooded paddy test, rice; details: 250 g ai/ha, Flood, applied to paddy water, 2-leaf stage, visually evaluated after 10 to 14 days
Text: A dash (-) response means no test result.

[10] = 31 g ai/ha, 0 to 100 scale (0 no effect, 100 complete control)
[11] = 125 g ai/ha, 0 to 100 scale, 0 no effect, 100 complete control
[12] = 31 g ai/ha, 0 to 100 scale (0 no effect, 100 complete control), 10 days

Structure (SMILES) | Plant response rating, Blackgrass [1, 10] | Plant response rating, Blackgrass [1, 11] | Plant response rating, Goosegrass [2, 10] | Plant response rating, Goosegrass [2, 11] | Plant response rating, Wheat [3, 10] | Plant response rating, Wheat [3, 11] | Plant response rating, Blackgrass ([4]; 31 g ai/ha, 10 days) | Plant response rating, Blackgrass ([4]; 125 g ai/ha) | Plant response rating, Foxtail, Giant [5, 12] | Plant response rating, Foxtail, Giant ([5]; 125 g ai/ha, 0 to 100 scale) | Plant response rating, Goosegrass [6, 12] | Plant response rating, Goosegrass ([6]; 125 g ai/ha, 0 to 100 scale) | Plant response rating, Pigweed, Palmer [7, 12] | Plant response rating, Pigweed, Palmer ([7]; 125 g ai/ha, 0 to 100 scale) | Plant response rating, Ryegrass, Italian [8, 12] | Plant response rating, Ryegrass, Italian ([8]; 125 g ai/ha, 0 to 100 scale) | Plant response rating, Horseweed [9, 12] | Plant response rating, Horseweed ([9]; 125 g ai/ha, 0 to 100 scale) | Plant response rating, Rice (0 to 100 scale, 0 is no effect, 100 is complete control) (rice (Oryza sativa))
Cc1cc(F)c(C2=NOC3CCCC23)cc1NS(=O)(=O)C(F)(F)F (stereo not shown) [Compound 310] | 0 | 0 | 0 | 0 | 0 | 0 | 0 | 0 | 0 | 0 | 0 | 0 | 0 | 0 | 20 | 30 | 10 | 30 | 0
Cc1c(NS(=O)(=O)C(F)(F)F)cc(C(=O)N2CCC(F)(F)CC2)c(C)c1C [Compound 357] | 0 | 10 | 80 | 100 | 0 | 10 | 0 | 0 | 0 | 20 | 0 | 70 | 0 | 50 | 20 | 20 | 20 | 80 | 10
Cc1cc(C)c(N(COC(=O)OC(C)(C)C)S(=O)(=O)C(F)(F)F)cc1C1=NOC2CCCC12 (stereo not shown) [Compound 316] | 0 | 0 | 40 | 90 | 0 | 0 | 0 | 0 | 0 | 0 | 0 | 90 | 30 | 70 | 0 | 30 | 30 | 40 | 0
Cc1cc(C)c(N(COC(=O)C(C)(C)C)S(=O)(=O)C(F)(F)F)cc1C(=O)N1CCC(C)CC1 [Compound 353] | 0 | 0 | 20 | 70 | 0 | 0 | 0 | 0 | 20 | 50 | 0 | 30 | 0 | 30 | 0 | 0 | 70 | 100 | 20
Cc1cc(C2CC2)c(NS(=O)(=O)C(F)(F)F)cc1C1=NOC2(CCCC2)C1 [Compound 313] | 0 | 0 | 0 | 20 | 0 | 0 | 0 | 0 | 0 | 0 | 0 | 0 | 0 | 10 | 0 | 0 | 0 | 0 | 0
Cc1cc(C)c(-n2nccc(C)c2=O)cc1NS(=O)(=O)C(F)(F)F [Compound 281] | 0 | 0 | 10 | 90 | 0 | 20 | 0 | 0 | 0 | 30 | 0 | 40 | 0 | 40 | 0 | 0 | 100 | 70 | 0
Cc1cc(C)c(N(S(=O)(=O)C(F)(F)F)S(=O)(=O)C(F)(F)F)cc1C1=NOC2COCC12 (stereo not shown) [Compound 296] | 10 | 60 | 40 | 90 | 10 | 90 | 0 | 0 | 0 | 10 | 20 | 60 | 0 | 20 | 0 | 40 | 70 | 80 | 0
Cc1c(C(=O)N(C)C)cc(NS(=O)(=O)C(F)(F)F)c(Cl)c1F [Compound 320] | 0 | 0 | 80 | 100 | 10 | 50 | 40 | 0 | 0 | 40 | 40 | 0 | 40 | 80 | 0 | 40 | 50 | 70 | 0
Cc1c(NS(=O)(=O)C(F)(F)F)cc(C(=O)N2CCC(Cl)CC2)c(C)c1C [Compound 356] | 0 | 10 | 90 | 90 | 0 | 30 | 0 | 0 | 10 | 40 | 0 | 70 | 0 | 10 | 20 | 30 | 50 | 80 | 0
Cc1c(NS(=O)(=O)C(F)(F)F)cc(C(=O)N2CCOCC2)c(C)c1Cl [Compound 290] | 20 | 70 | 70 | 90 | 0 | 40 | 0 | 0 | 0 | 70 | 30 | 70 | 0 | 20 | 0 | 50 | 70 | 90 | 0
